# Source: the NIST ThermoML archive (doi:10.1016/j.fluid.2013.06.028)
# ± gives the expanded uncertainty stated by the source.
# Experiment: activity coefficient (dimensionless); of the first substance listed, at infinite dilution; xn = mol fraction of the nth substance listed
# Details: 298 K; Liquid; Chromatography; x1 = 0
row,SMILES,activity coefficient
1,Brc1ccccc1 [bromobenzene] + OCCO,45 ± 10
2,Ic1ccccc1 [iodobenzene] + OCCO,42 ± 10
3,c1ccccc1 [benzene] + OCCO,32 ± 6
4,Fc1ccccc1 [fluorobenzene] + OCCO,32 ± 10
5,Cc1ccccc1 [toluene] + OCCO,93 ± 12
6,c1ccc2ccccc2c1 [naphthalene] + OCCO,238 ± 51
7,Clc1ccccc1 [chlorobenzene] + OCCO,40 ± 8
